This note sets out measurements from patent publication US7829580B2, “Cyclic amine derivative having heteroaryl ring” (Sankyo Company, Ltd., priority 2006, dated 2010).

Structures can show the parent of a compound that is named as a salt.

For assay [1], the system named is platelet coagulation. As to the kind of experiment: Inhibitory activities of test compounds against platelet coagulation ex vivo (oral administration to rats 4 hrs prior to blood collection, ADP-induced, PRP). It counts as in vivo, rat. As to conditions: for inhibition at 10 µg/mL: Rattus norvegicus, Platelet, po, 4 h, read-out: Test Example 2 (% inhibition); for Test Example 2 (% inhibition): head prints (10 μg/ml), orally administered to rats 4 hrs prior to blood collection, ADP-induced coagulation in PRP. The protocol:
Three to four male Sprague-Dawley rats (8 weeks of age, Japan SLC., Inc.) per group were used in the present test. […] In the control group, the vehicle was similarly and orally administered at the rate of 1 mL/kg 4 hrs prior to the blood collection. […] The obtained blood containing sodium citrate was centrifuged (230×g for 15 min at room temperature) and PRP fraction was isolated. Furthermore, after PRP was isolated, the blood was further centrifuged (2,000×g for 10 min at room temperature) and PPP fraction was isolated. Platelet count in PRP was determined by automated hematology analyzer (KX-21N, SYSMEX CORPORATION) and adjusted as 5×10^8/ml. After PRP (240 μl) was put into each cuvette, the platelet coagulation was assessed by automated hematology analyzer. After warming at 37° C. for 1.5 min, 10 μl of ADP solution (final concentration: […]) was added, and platelet coagulation was induced. Platelet coagulation was determined for 5 min and the maximum rate of plate coagulation determined.

Assay [2] has as its system platelet coagulation. The assay can be described thus: Inhibitory activities of test compounds against platelet coagulation in vitro (ADP-induced, rat platelet-rich plasma, aggregometer). It counts as cell-based. As to conditions: 10 μg/ml test substance in rat PRP, maximum rate of platelet coagulation over 5 min; for inhibition at 10 µg/mL: 5 min, read-out: Test Example 1 (% inhibition). On the procedure:
Confirmation of Inhibitory Activities of Test Compounds Against Platelet Coagulation In Vitro
Three to four male Sprague-Dawley rats (8 weeks of age, Japan SLC., Inc.) per group were used in the present test. Platelet coagulation was determined by platelet aggregometer (MCM Hema Tracer 313M, MC Medical, Inc.) according to modified methods described by Born et al. (Journal of Physiology, vol. 168, 178 (1963)). Blood (6.3 ml) was collected from abdominal aorta of rats anesthetized with pentobarbital sodium (40 mg/kg) with a microsyringe containing 0.7 ml of sodium citrate at a concentration of 3.8% as anti-coagulant. The obtained blood containing sodium citrate was centrifuged (230×g for 15 min at room temperature) and plate-rich plasma (hereinafter referred to as PRP) fraction was isolated. Furthermore, after PRP was isolated, the blood was further centrifuged (2,000×g for 10 min at room temperature) and platelet-poor plasma (hereinafter referred to as PPP) fraction was isolated. Platelet count in PRP was determined by automated hematology analyzer (KX-21N, SYSMEX CORPORATION) and adjusted as 5×10^8/ml. After PRP (239 μl) was put into each cuvette, the test substance dissolved in dimethyl sulfoxide (DMSO, 1 μl) was added to the PRP solution and assessed by automated hematology analyzer. In the control group, DMSO solution (1 μl) instead of the test substance solution was added to the PRP solution. After warming at 37° C. for 1.5 min, 10 μl of adenosine-5′-diphosphate (ADP) solution (final concentration: […]) was added, and platelet coagulation was induced. Platelet coagulation was determined for 5 min and the maximum rate of plate coagulation determined.

For the molecule `CCOC(=O)CCn1ccc(/C=C2\CN(C(C(=O)C3CC3)c3ccccc3F)CCC2S)n1` (stereo not drawn) [Example 112, (E)-1-[2-Cyclopropyl-1-(2-fluorophenyl)-2-oxoethyl]-3-({1-[2-(ethoxycarbonyl)ethyl]-1H-pyrazol-3-yl}methylidene)-4-sulfanylpiperidine hydrochloride], the inhibition (in general, how much of the control response was suppressed) at 10 µg/mL in the assay on platelet coagulation [1] was 91%; in the assay on platelet coagulation [2], 75%.
`Cl.O=C(C1CC1)C(c1ccccc1F)N1CCC(S)/C(=C/c2c[nH]nn2)C1` (stereo not drawn) [Example 235, (E)-1-[2-Cyclopropyl-1-(2-fluorophenyl)-2-oxoethyl]-4-sulfanyl-3-{[1(2)H-1,2,3-triazol-4(5)-yl]methylidene}piperidine hydrochloride]: the “Test Example 2 (% inhibition)” value in the assay on platelet coagulation [1] worked out at 54%. In addition, the “Test Example 1 (% inhibition)” value in the assay with platelet coagulation [2] is listed as 77%.
The like results for `Cl.O=C(O)CCn1cc(/C=C2\CN(C(C(=O)C3CC3)c3ccccc3F)CCC2S)cn1` (stereo not drawn) [Example 249, (E)-3-{[2-(Carboxyethyl)-1H-pyrazol-4-yl]methylidene}-1-[2-cyclopropyl-1-(2-fluorophenyl)-2-oxoethyl]-4-sulfanylpiperidine hydrochloride] were, in that order, 88% and 81%.
For `O=C(O)Cn1ccc(/C=C2\CN(C(C(=O)C3CC3)c3ccccc3F)CCC2S)n1` (stereo not drawn) [Example 77, (E)-3-{[1-(Carboxymethyl)-1H-pyrazol-3-yl]methylidene}-1-[2-cyclopropyl-1-(2-fluorophenyl)-2-oxoethyl]-4-sulfanylpiperidine hydrochloride], the inhibition at 10 µg/mL turned out to be 77% with platelet coagulation [1] and 76% in the assay on platelet coagulation [2].
`O=C(CCCn1nncc1/C=C1\CN(C(C(=O)C2CC2)c2ccccc2F)CCC1S)NO` (stereo not drawn) [Example 262, (E)-1-[2-Cyclopropyl-1-(2-fluorophenyl)-2-oxoethyl]-3-({1-[3-(N-hydroxycarbamoyl)propyl]-1H-1,2,3-triazol-5-yl}methylidene)-4-sulfanylpiperidine hydrochloride]: the results for the inhibition at 10 µg/mL with platelet coagulation [1] and in the assay on platelet coagulation [2] were 91% and 71%, respectively.
On to `CONC(=O)Cn1ccc(/C=C2\CN(C(C(=O)C3CC3)c3ccccc3F)CCC2S)n1.Cl` (stereo not drawn) [Example 192, (E)-1-[2-Cyclopropyl-1-(2-fluorophenyl)-2-oxoethyl]-3-{[1-(N-methoxycarbamoylmethyl)-1H-pyrazol-3-yl]methylidene}-4-sulfanylpiperidine hydrochloride], for which the “Test Example 2 (% inhibition)” value in the assay with platelet coagulation [1] stood at 81%. For the same molecule, in the assay with platelet coagulation [2], the “Test Example 1 (% inhibition)” value is on record as 84%.
As for `O=C(O)CCn1ncc(/C=C2\CN(C(C(=O)C3CC3)c3ccccc3F)CCC2S)n1` (stereo not drawn) [Example 242, (E)-3-{[2-(Carboxyethyl)-2H-1,2,3-triazol-4-yl]methylidene}-1-[2-cyclopropyl-1-(2-fluorophenyl)-2-oxoethyl]-4-sulfanylpiperidine hydrochloride], the inhibition at 10 µg/mL in the assay on platelet coagulation [1] came to 82%; in the assay with platelet coagulation [2], 75%.
The like results for `O=C(O)CCCn1ccc(/C=C2\CN(C(C(=O)C3CC3)c3ccccc3F)CCC2S)n1` (stereo not drawn) [Example 117, (E)-3-{[1-(3-Carboxypropyl)-1H-pyrazol-3-yl]methylidene}-1-[2-cyclopropyl-1-(2-fluorophenyl)-2-oxoethyl]-4-sulfanylpiperidine hydrochloride] were, in that order, 63% and 70%.
For `O=C(O)CCn1nnnc1/C=C1\CN(C(C(=O)C2CC2)c2ccccc2F)CCC1S` (stereo not drawn) [Example 258, (E)-3-{[1-(2-Carboxyethyl)-1H-tetrazol-5-yl]methylidene}-1-[2-cyclopropyl-1-(2-fluorophenyl)-2-oxoethyl]-4-sulfanylpiperidine hydrochloride] the same measures were 76% and 85%.
Consider `CC(=O)SC1CCN(C(C(=O)C2CC2)c2ccccc2F)C/C1=C\c1ccn(CCC(=O)O)n1` (stereo not drawn) [Example 114, (E)-4-(Acetylsulfanyl)-3-{[1-(2-carboxyethyl)-1H-pyrazol-3-yl]methylidene}-1-[2-cyclopropyl-1-(2-fluorophenyl)-2-oxoethyl]piperidine hydrochloride], for which, in the assay with platelet coagulation [1], the inhibition at 10 µg/mL stood at 81%.
Take `O=C(O)CCCCn1ccc(/C=C2\CN(C(C(=O)C3CC3)c3ccccc3F)CCC2S)n1` (stereo not drawn) [Example 121, (E)-3-{[1-(4-Carboxybutyl)-1H-pyrazol-3-yl]methylidene}-1-[2-cyclopropyl-1-(2-fluorophenyl)-2-oxoethyl]-4-sulfanylpiperidine hydrochloride]: the inhibition at 10 µg/mL in the assay on platelet coagulation [1] worked out at 72%; in the assay on platelet coagulation [2], 55%.
`CCOC(=O)Cn1ccc(/C=C2/CN(C(C(=O)C3CC3)c3ccccc3F)CCC2S)n1` (stereo not drawn) [Example 154, (Z)-1-[2-Cyclopropyl-1-(2-fluorophenyl)-2-oxoethyl]-3-{[1-(ethoxycarbonylmethyl)-1H-pyrazol-3-yl]methylidene}-4-sulfanylpiperidine hydrochloride]: the inhibition at 10 µg/mL in the assay with platelet coagulation [1] was determined as 79%.
With `O=C(O)CCn1nncc1/C=C1\CN(C(C(=O)C2CC2)c2ccccc2F)CCC1S` (stereo not drawn) [Example 134, (E)-3-{[1-(2-Carboxyethyl)-1H-1,2,3-triazol-5-yl]methylidene}-1-[2-cyclopropyl-1-(2-fluorophenyl)-2-oxoethyl]-4-sulfanylpiperidine hydrochloride], the inhibition at 10 µg/mL in the assay with platelet coagulation [2] is 85%.
As for `O=C(O)CCCn1cc(/C=C2\CN(C(C(=O)C3CC3)c3ccccc3F)CCC2S)nn1` (stereo not drawn) [Example 143, (E)-3-{[1-(3-Carboxypropyl)-1H-1,2,3-triazol-4-yl]methylidene}-1-[2-cyclopropyl-1-(2-fluorophenyl)-2-oxoethyl]-4-sulfanylpiperidine hydrochloride], the inhibition at 10 µg/mL in the assay on platelet coagulation [1] was 69%; in the assay with platelet coagulation [2], 81%.
For `O=C(O)CCn1nnc(/C=C2\CN(C(C(=O)C3CC3)c3ccccc3F)CCC2S)n1` (stereo not drawn) [Example 257, (E)-3-{[2-(2-Carboxyethyl)-2H-tetrazol-5-yl]methylidene}-1-[2-cyclopropyl-1-(2-fluorophenyl)-2-oxoethyl]-4-sulfanylpiperidine hydrochloride] the same measures were 51% and 87%.
